Drawing on paper PMC6920499, “Sustainability potentials of novel laccase tinctures from Stenotrophomonas maltophilia BIJ16 and Bordetella bronchiseptica HSO16: From dye decolourization to denim bioscouring” (Biotechnology Reports, 2019), this text covers Km for one compound.

Assay [1] deals with T1, Bordetella sp. HSO16 laccase (Hb16c laccase).
T1 construct: gene cueO; crude culture supernatant, native secreted laccase, not purified; several laccase-like genes inferred by PCR
The assay can be described thus: ABTS oxidation at […] nm, Lineweaver-Burk. In kind it is biochemical. The settings on record: crude laccase; standard assay potassium phosphate pH 6, 30 °C. The text has this: HSO16 laccase (Hb16c laccase)

The subject of assay [2] is T2, Stenotrophomonas sp. BIJ16 laccase (Berl1^1b2 laccase).
T2 construct: gene MCOStm; crude culture supernatant, native secreted laccase, not purified; several laccase-like genes inferred by PCR
The assay can be described thus: ABTS oxidation at […] nm, Lineweaver-Burk. In kind it is biochemical. The settings on record: crude laccase; standard assay potassium phosphate pH 6, 30 °C. The text has this: BIJ16 laccase (Berl1^1b2 laccase)

Turning to `CCn1c(=NN=c2sc3cc(S(=O)(=O)O)ccc3n2CC)sc2cc(S(=O)(=O)O)ccc21` [ABTS, 2,2’-azino-bis (3-ethylbenzothiazoline-6-sulfonic acid)], the Km (as a rule, the concentration of substrate that gives half-maximal velocity) in assay [1] was found to be 1090 nM; in assay [2], 636 nM.
